Laboratory results reported in PubChem BioAssay AID743231 (The Scripps Research Institute Molecular Screening Center, 2013).
The source made the active and inactive calls. No cut-off is given here; in the data, nearly all actives have IC50 up to about 7.9 µM.

Target: Trace amine-associated receptor 1 (Homo sapiens) (UniProt Q96RJ0)
Test: TAAR1 desensitization potency of agonists, dose response, counter-screen for TAAR1 agonist project, cell-based, fluorescence, late stage (AID 743231)
Settings: hTAAR1 cells

Sequence of Trace amine-associated receptor 1 (Homo sapiens) (Q96RJ0 whole entry, looked up): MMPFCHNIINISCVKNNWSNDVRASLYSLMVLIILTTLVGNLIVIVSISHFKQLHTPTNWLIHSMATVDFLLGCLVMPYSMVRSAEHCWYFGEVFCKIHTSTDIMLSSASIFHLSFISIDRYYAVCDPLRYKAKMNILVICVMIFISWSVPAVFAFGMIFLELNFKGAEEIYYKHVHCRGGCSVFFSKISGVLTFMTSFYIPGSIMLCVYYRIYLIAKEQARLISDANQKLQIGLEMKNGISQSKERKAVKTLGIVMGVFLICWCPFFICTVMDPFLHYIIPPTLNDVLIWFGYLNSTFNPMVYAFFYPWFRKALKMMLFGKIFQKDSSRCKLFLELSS

**Q.** For OCCNc1nc(Nc2cccc(O)c2)nc2ccccc12, which IC50 is on record?
**A.** 244 nM

**Q.** O=C(Nc1ccncc1)Nc1ccc(F)cc1 was tested. Which IC50 did it give?
**A.** 2430 nM

**Q.** Cc1cc(C)n(C(CC(=O)N2CCc3ccccc3C2)C(=O)O)n1 (stereo not given) was tested. Which IC50 did it give?
**A.** 1220 nM

**Q.** For Nc1nc(Nc2ccccc2)nc2ccccc12, which IC50 is on record?
**A.** 642 nM

**Q.** Which IC50 does the source give for O=C(C(=O)N1CCc2ccccc2C1)c1cn(CC(=O)N2CCCCC2)c2ccccc12 here?
**A.** 2690 nM

**Q.** How did the IC50 turn out when CCOC(=O)C(NC(=O)CC)(N1CCc2ccccc2C1)C(F)(F)F (stereo not given) was run?
**A.** 611 nM

**Q.** c1ccc2c3c([nH]c2c1)CCNC3 was tested. Which IC50 did it give?
**A.** 1120 nM

**Q.** How did the IC50 turn out when O=C(CCN1CCC(c2ccccc2)C1)c1ccc2c(c1)OCCO2 (stereo not given) was run?
**A.** 856 nM

**Q.** With Cc1ccc(NC(=O)CCN2CCc3ccccc3C2)cc1 as the compound, how does the IC50 read?
**A.** 8270 nM

**Q.** NC(N)=NN=Cc1c(Cl)cccc1Cl was tested. Which IC50 did it give?
**A.** 770 nM

**Q.** CC(=NCCc1ccccc1)C1CCOC1=O (stereo not given) was tested. Which IC50 did it give?
**A.** 2840 nM

**Q.** With CC1(C)CCCN(C(=O)c2coc(=O)c(Br)c2)C1 as the compound, how does the IC50 read?
**A.** 2550 nM

**Q.** How did the IC50 turn out when O=C(CCN1CCc2ccccc2CC1)c1ccc2c(c1)OCCO2 was run?
**A.** 1010 nM

**Q.** For c1ccc2c(c1)CCN(c1nc3cc4c(cc3s1)OCO4)C2, which IC50 is on record?
**A.** 2250 nM

**Q.** For c1ccc(CCn2nnnc2C(c2cccs2)N2CCN(Cc3ccc4c(c3)OCO4)CC2)cc1 (stereo not given), which IC50 is on record?
**A.** 1340 nM

**Q.** With O=C(CCN1CCC(c2ccccc2)C1)c1cccs1 (stereo not given) as the compound, how does the IC50 read?
**A.** 835 nM

**Q.** With COc1cc(C(=O)CCN2CCC(c3ccccc3)C2)cc(OC)c1OC (stereo not given) as the compound, how does the IC50 read?
**A.** 1520 nM

**Q.** With O=C(Nc1cccc2ccccc12)N1CCc2ccccc2C1 as the compound, how does the IC50 read?
**A.** > 29900 nM (inactive)

**Q.** How did the IC50 turn out when O=C(Nc1ccccc1)Nc1ccncc1 was run?
**A.** 2740 nM

**Q.** CCOC(=O)C(NC(C)=O)(N1CCc2ccccc2C1)C(F)(F)F (stereo not given) was tested. Which IC50 did it give?
**A.** 639 nM

**Q.** Which IC50 does the source give for Nc1nc(Nc2cccc(F)c2)nc2ccccc12 here?
**A.** 1280 nM

**Q.** How did the IC50 turn out when Cc1cc(N(C)C)nc(Nc2ccccc2)n1 was run?
**A.** 210 nM

**Q.** O=C(CCCCl)N1CCc2[nH]c3ccccc3c2C1 was tested. Which IC50 did it give?
**A.** 1090 nM

**Q.** Which IC50 does the source give for OCCNc1nc(Nc2ccc(O)cc2)nc2ccccc12 here?
**A.** 1860 nM

**Q.** O=C(Nc1cccnc1)Nc1cccc(F)c1 was tested. Which IC50 did it give?
**A.** 6520 nM
